Experiments:
[1] = tested on: volunteers with only hyperlipidemia; assay: Auxiliary detection on blood lipids, 6 weeks; assay type: in vivo, human; conditions: 10, 20 or 30 mg 3 times a day oral
Experimental: Using the same method as described in Example 3 except that 8 volunteers with only hyperlipidemia were recruited and using the same method as described in Example 3. The volunteers were randomly assigned into the following four groups at a ratio of 1:1:1:1: administration group (Group A): phenylethyl isothiocyanate 10 mg/time, 3 times a day; administration group (Group D): phenylethyl isothiocyanate 20 mg/time, 3 times a day; administration group (Group B): phenylethyl isothiocyanate 30 mg/time, 3 times a day; placebo group (Group C): phenylethyl isothiocyanate placebo 1 capsule/time, 3 times a day. Oral administration was continued for 6 weeks.

[2] = tested on: volunteers with only hyperbilirubinemia; assay: Auxiliary detection on total bilirubin, 6 weeks; assay type: in vivo, human; conditions: 10, 20 or 30 mg 3 times a day oral
Experimental: The method was the same as described in Example 3, except that 8 volunteers with only hyperbilirubinemia were recruited in the medical research peers. Using the same manner as described in Example 3, the subjects were randomly assigned into any one of the following four groups at a ratio of 1:1:1:1: administration group (Group A): phenylethyl isothiocyanate 10 mg/time, 3 times a day; administration group (Group D): phenylethyl isothiocyanate 20 mg/time, 3 times a day; administration group (Group B): phenylethyl isothiocyanate 30 mg/time, 3 times a day; placebo group (C group): phenylethyl isothiocyanate placebo 1 capsule/time, 3 times a day. Oral administration was continued for 6 weeks.

[3] = tested on: SD rats; assay: Hypolipidemic activity in rats: serum triglyceride after 6 months oral gavage; assay type: in vivo, rat; conditions: for TG (serum triglyceride level): at terminal of administration, x ± SD, n = 14
Experimental: Reagent: phenylethyl isothiocyanate, synthesized by Wuxi Jiexi Pharmaceutical Technology Co., Ltd. The chemical construction was determined by NMR, UV, IR, MS, etc., and its content and purity were determined by HPLC (>99%); Fulinmen Brand corn oil, manufactured by Dongliang Industry (Zhangjiagang) Co., Ltd.
Animals: Clean SD rats, half male and half female, weighed 80-100 g, were provided by Shanghai Slac Laboratory Animal Co., Ltd. Free access to drinking water, ambient temperature of 20-25° C., relative humidity of 40%-70%.
Experimental methods: Male rats with 123-149 g of body weight were randomly divided into 4 groups according to their body weights. Female rats with 116-142 g of body weight were randomly divided into 4 groups according to body weights. In the control group and high dose group, there were 60 in each group. In the medium-dose and low-dose groups, there were 40 in each group, half male and half female. 0, 20, 60, 120 mg/kg of phenethyl isothiocyanate was administered by oral gavage, wherein the test drug was diluted with corn oil. The rats were administered continuously for 6 months, and administered 6 days a week, and administered at the same time every morning.
Observation items: blood biochemical examination.

[4] = tested on: volunteers with benign prostatic hyperplasia accompanied by elevated bilirubin; assay: Auxiliary detection on total bilirubin and blood lipid, 24 weeks; assay type: in vivo, human; conditions: 10, 20 or 30 mg 3 times a day oral
Experimental: Using the same method as described in Example 2, 24 volunteers with benign prostatic hyperplasia accompanied by elevated bilirubin were recruited. Using the same manner as described in Example 2, subjects meeting the entry criteria were randomly assigned into any of the following four groups at a ratio of 1:1:1:1: administration group (Group A): phenylethyl isothiocyanate 10 mg/time, 3 times a day; administration group (Group D): Phenylethyl isothiocyanate 20 mg/time, 3 times a day; administration group (Group B): phenylethyl isothiocyanate 30 mg/time, 3 times a day; placebo group (C group): phenylethyl isothiocyanate placebo 1 capsule/time, 3 times a day. Oral administration was continued for 24 weeks. The effectiveness and safety of the experiment were evaluated. Effectiveness: 1. benign prostatic hyperplasia: IPSS, QOL, prostate volume, maximal urinary flow rate, residual urine; 2. triglycerides; 3. lipoprotein cholesterol; 4. total bilirubin. Safety: occurrence, process, and solution of all adverse events during treatment.

[5] = tested on: patients with benign prostatic hyperplasia; assay: Multicenter randomized double-blind placebo-controlled trial, 24 weeks: serum triglyceride, lipoprotein cholesterol, total bilirubin; assay type: in vivo, human; conditions: for serum high-density lipoprotein, average change value compared with baseline / serum high-density lipoprotein, percentage of average change compared with baseline: Centers No. 11, 13 and 14
Experimental: A multicenter, randomized, double-blind, placebo parallel control design was used to preliminarily evaluate the safety and efficacy of phenylethyl isothiocyanate capsules on the treatment of BPH patients. Subjects meeting the entry criteria were randomly assigned to any of the following four groups at a ratio of 1:1:1:1: administration group (Group A): phenylethyl isothiocyanate 10 mg/time, 3 times a day; administration group (group D): phenylethyl isothiocyanate 20 mg/time, 3 times a day; administration group (group B): phenylethyl isothiocyanate 30 mg/time, 3 times a day; placebo group (group C): phenylethyl isothiocyanate placebo 1 capsule/time, 3 times a day. Oral administration was continued for 24 weeks. Men between the ages of 50 and 75, healthy, with moderate benign prostatic hyperplasia, no signs of prostate cancer. A total of 240 men participated in the six-month trial. Effectiveness: 1. benign prostatic hyperplasia: IPSS, QOL, prostate volume, the maximal urinary flow rate, residual urine; 2. triglycerides; 3. lipoprotein cholesterol; 4. total bilirubin. Safety: occurrence, process, and solution of all adverse events during treatment. Among the 14 centers in the clinical trial, the serum triglyceride levels and high-density lipoprotein and low-density lipoprotein levels in serum of the subjects were all detected in the center No. 11, center No. 13, and center No. 14.

S=C=NCCc1ccccc1 [phenylethyl isothiocyanate]
high-density lipoprotein level, increase [1]: 10-20% | low density lipoprotein level, decrease [1]: 10-25% | triglyceride level, decrease [1]: 10-25% | total bilirubin level, decrease [2]: 10-25% | decrease of triglycerides in serum compared with the 0 mg/kg group ([3]; female rats, 20 mg/kg): 25.5% | TG (serum triglyceride level) ([3]; female rats, 20 mg/kg oral gavage): 2.13 ± 0.82 mmol/L | decrease of triglycerides in serum compared with the 0 mg/kg group ([3]; female rats, 60 mg/kg): 41.2% | TG (serum triglyceride level) ([3]; female rats, 60 mg/kg oral gavage): 1.68 ± 0.63 mmol/L | decrease of triglycerides in serum compared with the 0 mg/kg group ([3]; female rats, 120 mg/kg): 52.8% | TG (serum triglyceride level) ([3]; female rats, 120 mg/kg oral gavage): 1.35 ± 0.72 mmol/L | decrease of triglycerides in serum compared with the 0 mg/kg group ([3]; male rats, 20 mg/kg): 24.1% | TG (serum triglyceride level) ([3]; male rats, 20 mg/kg oral gavage): 1.73 ± 0.79 mmol/L | decrease of triglycerides in serum compared with the 0 mg/kg group ([3]; male rats, 60 mg/kg): 44.3% | TG (serum triglyceride level) ([3]; male rats, 60 mg/kg oral gavage): 1.27 ± 0.38 mmol/L | decrease of triglycerides in serum compared with the 0 mg/kg group ([3]; male rats, 120 mg/kg): 56.1% | TG (serum triglyceride level) ([3]; male rats, 120 mg/kg oral gavage): 1.00 ± 0.22 mmol/L | high-density lipoprotein level, increase [4]: 10-20% | low density lipoprotein level, decrease [4]: 15-25% | total bilirubin level, decrease [4]: 15-25% | triglyceride level, decrease [4]: 15-25% | triglyceride, percentage of average change compared with baseline ([5]; Group A, 30 mg (10 mg 3 times a day) oral, 24 weeks): −6.54% | total bilirubin, percentage of average change compared with the baseline ([5]; Group A, 30 mg, 4 weeks): 2.23% | total bilirubin, percentage of average change compared with the baseline ([5]; Group A, 30 mg, 8 weeks): −3.15% | total bilirubin, percentage of average change compared with the baseline ([5]; Group A, 30 mg, 16 weeks): −4.46% | low-density lipoprotein, average change value compared with baseline ([5]; Group A, 30 mg, 24 weeks): 0.0062 | low-density lipoprotein, percentage of average change compared with baseline ([5]; Group A, 30 mg, 24 weeks): −0.88% | total bilirubin levels, average decrease compared with the baseline ([5]; Group A, 30 mg, 24 weeks): 8.91% | total bilirubin, percentage of average change compared with the baseline ([5]; Group A, 30 mg, 24 weeks): −8.91% | triglyceride levels, average decrease compared with baseline ([5]; Group A, 30 mg, 24 weeks): 6.54% | serum high-density lipoprotein, average change value compared with baseline ([5]; Group A, 30 mg, 24 weeks): 0.0063 | serum high-density lipoprotein, percentage of average change compared with baseline ([5]; Group A, 30 mg, 24 weeks): 1.45% | triglyceride, percentage of average change compared with baseline ([5]; Group B, 90 mg (30 mg 3 times a day) oral, 24 weeks): −8.59% | total bilirubin, percentage of average change compared with the baseline ([5]; Group B, 90 mg, 4 weeks): 2.18% | total bilirubin, percentage of average change compared with the baseline ([5]; Group B, 90 mg, 8 weeks): −0.45% | total bilirubin, percentage of average change compared with the baseline ([5]; Group B, 90 mg, 16 weeks): −8.28% | low-density lipoprotein, average change value compared with baseline ([5]; Group B, 90 mg, 24 weeks): 0.1925 | low-density lipoprotein, percentage of average change compared with baseline ([5]; Group B, 90 mg, 24 weeks): 6.92% | total bilirubin levels, average decrease compared with the baseline ([5]; Group B, 90 mg, 24 weeks): 6.10% | total bilirubin, percentage of average change compared with the baseline ([5]; Group B, 90 mg, 24 weeks): −6.10% | triglyceride levels, average decrease compared with baseline ([5]; Group B, 90 mg, 24 weeks): 8.59% | serum high-density lipoprotein, average change value compared with baseline ([5]; Group B, 90 mg, 24 weeks): 0.0938 | serum high-density lipoprotein, percentage of average change compared with baseline ([5]; Group B, 90 mg, 24 weeks): 7.77% | triglyceride, percentage of average change compared with baseline ([5]; Group D, 60 mg (20 mg 3 times a day) oral, 24 weeks): −8.58% | total bilirubin, percentage of average change compared with the baseline ([5]; Group D, 60 mg, 4 weeks): 5.21% | total bilirubin, percentage of average change compared with the baseline ([5]; Group D, 60 mg, 8 weeks): 3.34% | total bilirubin, percentage of average change compared with the baseline ([5]; Group D, 60 mg, 16 weeks): −1.82% | low-density lipoprotein, average change value compared with baseline ([5]; Group D, 60 mg, 24 weeks): −0.0425 | low-density lipoprotein, percentage of average change compared with baseline ([5]; Group D, 60 mg, 24 weeks): 0.05% | total bilirubin levels, average decrease compared with the baseline ([5]; Group D, 60 mg, 24 weeks): 8.55% | total bilirubin, percentage of average change compared with the baseline ([5]; Group D, 60 mg, 24 weeks): −8.55% | triglyceride levels, average decrease compared with baseline ([5]; Group D, 60 mg, 24 weeks): 8.58% | serum high-density lipoprotein, average change value compared with baseline ([5]; Group D, 60 mg, 24 weeks): 0.1013 | serum high-density lipoprotein, percentage of average change compared with baseline ([5]; Group D, 60 mg, 24 weeks): 9.15%

Reference: patent publication US11298334B2, “Use of isothiocyanate compounds” (JC (WUXI) COMPANY, INC., priority 2016, dated 2022)
